Experimental data published in patent US5053392A, “Novel arginine, glycine, aspartic acid derivatives as platelet-aggregation inhibitors” (Rhone-Poulenc Rorer Pharmaceuticals Inc., priority 1989, dated 1991).
Non-standard residues stand in square brackets, D forms with d. Residues, ends and D or L forms follow the SMILES beside them. ξ: configuration not given here. Aze = O=C(O)[C@@H]1CCN1; ξPip = O=C(O)C1CCCCN1; Ava = NCCCCC(=O)O

Key:
Human Platelets = test: Inhibition of fibrinogen-mediated platelet aggregation; format: cell-based; conditions: for IC50: thrombin-activated human platelets, rate of aggregation
Description: II. Inhibition of Fibrinogen - Mediated Platelet Aggregation, which is essentially based on the method described in Blood, Vol. 66, No. 4, October 1985, pp. 846-952, and is as follows.
Human Platelets were isolated from freshly drawn whole blood and were suspended in 0.14 mol/L NaCl, 2.7 mmol/L […], 12 mmol/L NaHCO3, 0.42 mmol/L Na2 HPO4, 0.55 mmol/L glucose, and 5 mmol/L Hepes, pH 7.35 at 2×10^8 platelets/ml. The suspension was incubated at 37° C. An aliquot of 0.4 ml of platelet suspension was activated by human thrombin at a final concentration of 2 μg/ml of thrombin for one minute. After one minute the reaction was stopped by a thrombin inhibitor. Serial dilution of the compound being tested was then added to the activated platelet, the reaction was allowed to proceed for one minute, followed by the addition of human fibrinogen at a final concentration of […] of fibrinogen. Platelet aggregation was then recorded by an aggregometer. Rate of aggregation was used to calculate IC50.

[1] = system: thrombin-stimulated platelets; test: Inhibition of radiolabeled (125I) fibrinogen binding assay; conditions: for Inhibition of 125I-Fibrinogen Binding to Platelet, inhibition at 50 μg/ml: at 50 μg/ml (footnote *); for IC50: thrombin-stimulated platelets, read-out: Inhibition of 125I-Fibrinogen Binding to Platelet IC50
Description: I. Inhibition of Radiolabeled (125I) Fibrinogen Binding Assay, which is essentially based on the method described in Proc Natl. Acad. Sci. U.S.A. Vol. 83, pp. 5708-5712, August 1986, and is as follows.
Platelets are washed free of plasma constitutes by the albumin density-gradient technique. In each experimental mixture platelets in modified Tyrode's buffer are stimulated with human α-thrombin at 22°-25° C. for 10 minutes (3.125×10" platelets per liter and thrombin at […]). Hirudin is then added at a 25-fold excess for 5 minutes before addition of the radiolabeled ligand and any competing ligand. After these additions, the final platelet count in the mixture is […], bound and free ligand are separated by centrifuging 50 μl of the mixture through 300 μl of 20% sucrose at 12,000×g for 4 minutes. The platelet pellet is then separated from the rest of the mixture to determine platelet-bound radioactivity. Nonspecific binding is measured in mixtures containing an excess of unlabeled ligand. When binding curves are analyzed by Scatchard analysis, nonspecific binding is derived as a fitted parameter from the binding isotherm by means of a computerized program. To determine the concentration of each inhibitory compound necessary to inhibit 50% of fibrinogen binding to thrombin-stimulated platelets (IC50), each compound is tested at 0.176 μgmol/liter (60 μg/ml). The IC50 is derived by plotting residual fibrinogen binding against the logarithm of the sample compound's concentration.

IC50 (Human Platelets)	IC50 [1]	Structure (SMILES)	Inhibition of Fibrinogen Mediated Platelet Aggregation % inhibition at 100 μM (Human Platelets)	Inhibition of 125I-Fibrinogen Binding to Platelet, inhibition at 50 μg/ml [1]
> 100 µM	–	CC(C)[C@H](NC(=O)[C@H](CC(=O)O)NC(=O)[C@@H]1CCCN1C(=O)[C@@H](N)CCCNC(=N)N)C(=O)O [L-arginyl-L-prolyl-L-aspartyl-L-valine, L-Arginyl-L-prolyl-L-aspartyl-L-valine] (H-RPDV-OH)	25%	* (Inhibited less than 50% at 50 μg/ml)
59 µM	> 200 µM	CC(C)[C@H](NC(=O)[C@H](CC(=O)O)NC(=O)[C@@H]1CCN1C(=O)CCCCN)C(=O)O [N-(5-aminopentanoyl)-azetidin-(2S)-carboxyl-Asp-Val] (H-[Ava][Aze]DV-OH)	74%	–
13 µM	13 µM	CC(C)[C@H](NC(=O)[C@H](CC(=O)O)NC(=O)[C@@H]1CCN1C(=O)[C@@H](N)CCCNC(=N)N)C(=O)O [N-(L-arqinyl)-azetidine-(2S)-carboxyl-Asp-Val] (H-R[Aze]DV-OH)	91%	–
28.6 µM	–	CC(C)[C@H](NC(=O)[C@H](CC(=O)O)NC(=O)C1CCCCN1C(=O)[C@@H](N)CCCNC(=N)N)C(=O)O (stereo partly drawn) [N-[1-(L-arginyl)piperidin-2-yl-carbonyl]-L-aspartyl-L-valine] (H-R[ξPip]DV-OH)	73%	* (Inhibited less than 50% at 50 μg/ml)
